4 compounds from patent publication US20040052799A1, “Nucleic acid and amino acid sequences relating to Helicobacter pylori for diagnostics and therapeutics” (Astra Aktiebolag, priority 1996, published 2004) can be followed below.

A short description of data set [1]: Stability of ASA in solution. It counts as physicochemical. The procedure:
ASA in 4 N HCl was prepared daily for use in Asd assays by partial neutralization with addition of 1.0 equivalent of […], with a resulting pH=1-2. The amount of ASA was determined enzymatically by complete reaction in the presence of excess NADP^+and phosphate. […] These observations are consistent with previous reports on the stability of ASA (Karsten et al., 1991, Biochim. Biophys. Acta 1077, 209-219). Assays were performed in the following buffer: 200 mM HEPES, 0.3 mM NADP^+, 30 mM NaH2PO4, 1.0 mM DTT, pH 7.5 or pH 8.0. ASA was used in the assay at concentrations of 5-165 μM by diluting the partially-neutralized ASA stock into the assay 10-200 fold, leading to a decrease in pH of 0.1 units or less. Reaction was initiated with the addition of enzyme to a final concentration of 3.5-70 nM.

The target in data set [2] is T1, H. pylori glutamate racemase (Helicobacter pylori, UniProt Q9ZLT0).
T1 construct: made in house; host or cells: E. coli BL21(DE3) carrying pET-23-murI and pACYC-groE (GroES/GroEL co-expressed)
Nature of the data set: Inactivation of glutamate racemase by L-serine-O-sulfate, single enzyme coupled assay. The following applies: 20 mM L-serine-O-sulfate, different incubation times, FIG. 7. It counts as biochemical. The procedure:
In this assay, the conversion of D-glutamic acid to L-glutamic acid is coupled to the conversion of L-glutamic acid and NAD^+by L-glutamate dehydrogenase to 2-oxoglutarate, ammonia. The production of NADH is measured as an increase of absorbance at 340 nm (the reduction of NAD^+ to NADH) at 37° C. The standard assay mixture (adapted from Choi, S- Y, Esaki, N., Yoshimura, T., and Soda, K., 1991, Protein Expression and Purification 2, 90-93) contained 10 mM Tris-HCl, pH 7.5, 5 mM NAD+, 5 Units/ml L-glutamate dehydrogenase, varying concentrations of the substrate D-Glutamic Acid (0.063 mM to 250 mM), and the purified recombinant H. pylori enzyme glutamate racemase (1 μg to 50 μg). The reaction was started by the addition of either the substrate D-glutamic acid or the recombinant glutamate racemase after a preincubation at 37° C. for 5 minutes with all of the other assay ingredients. The change in absorbance at 340 nm was measured in a Spectra MAX 250. Initial velocities were derived from the initial slopes. […]
The H. pylori glutamate racemase was tested for inactivation with a sucuide inhibitor, L-serine-O sulfate, which is known to inhibit murI from E. coli. […] The initial velocity of purified recombinant H. pylroi murI protein was determined in the single enzyme coupled asssay following incubation with the inhibitor L-serine-O-sulfate (LSOS) at 20 mM for the times indicated on the x-axis. […]

Data set [3] deals with H. pylori Asd (Helicobacter pylori, UniProt Q9ZK28). Nature of the data set: Asd assay, reverse reaction, NADPH formation. Particulars: read-out: Km for phosphate; pH 8.0. The protocol: (§1) The enzymatic activity of purified His-tagged H. pylori Asd (SEQ ID NO: 6545) was characterized by assaying the reverse reaction of phosphorylation of L-aspartate-β-semialdehyde (ASA) to L-p-aspartyl phosphate, with concomitant reduction of NADP^+ to NADPH. The formation of NADPH was detected by its absorbance, 340 nm, or by its fluorescence, excitation =340 nm, emission 455 nm.
(§2) ASA in 4 N HCl was prepared daily for use in Asd assays by partial neutralization with addition of 1.0 equivalent of […], with a resulting pH=1-2. The amount of ASA was determined enzymatically by complete reaction in the presence of excess NADP^+and phosphate. […] Assays were performed in the following buffer: 200 mM HEPES, 0.3 mM NADP^+, 30 mM NaH2PO4, 1.0 mM DTT, pH 7.5 or pH 8.0. ASA was used in the assay at concentrations of 5-165 μM by diluting the partially-neutralized ASA stock into the assay 10-200 fold, leading to a decrease in pH of 0.1 units or less. Reaction was initiated with the addition of enzyme to a final concentration of 3.5-70 nM.

Data set [4] has as its target T2, E. coli Asd (Escherichia coli, UniProt P0A9Q9).
T2 construct: made in house; host or cells: E. coli HMS174 pLysS, pET28b
T2 sequence (P0A9Q9 1-367): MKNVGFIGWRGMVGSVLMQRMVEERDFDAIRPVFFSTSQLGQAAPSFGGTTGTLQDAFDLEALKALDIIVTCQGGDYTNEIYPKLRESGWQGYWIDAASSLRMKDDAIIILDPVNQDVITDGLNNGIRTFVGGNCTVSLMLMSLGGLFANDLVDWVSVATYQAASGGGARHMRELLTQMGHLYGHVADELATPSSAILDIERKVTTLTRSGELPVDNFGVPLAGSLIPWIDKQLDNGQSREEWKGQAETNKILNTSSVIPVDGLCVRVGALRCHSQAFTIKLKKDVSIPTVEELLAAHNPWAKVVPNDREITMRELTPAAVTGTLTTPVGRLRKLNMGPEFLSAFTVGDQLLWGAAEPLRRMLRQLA
In words: Asd assay, reverse reaction, NADPH formation. It counts as biochemical. The following applies: pH 7.5; read-out: Km for phosphate. The procedure: as §1, §2

In data set [5] the test system is H. pylori (strain AH244). It counts as in vivo. The following applies: BALB/c mice infected with strain AH244, 100 μg antigen + 10 μg CT orally, compared to control, FIGS. 3 and 4.

Read-outs that look alike come from different tables or passages of the source.

In general, Km refers to the substrate concentration at which the rate is half of its maximum.

T1 sequence (Q9ZLT0 whole entry): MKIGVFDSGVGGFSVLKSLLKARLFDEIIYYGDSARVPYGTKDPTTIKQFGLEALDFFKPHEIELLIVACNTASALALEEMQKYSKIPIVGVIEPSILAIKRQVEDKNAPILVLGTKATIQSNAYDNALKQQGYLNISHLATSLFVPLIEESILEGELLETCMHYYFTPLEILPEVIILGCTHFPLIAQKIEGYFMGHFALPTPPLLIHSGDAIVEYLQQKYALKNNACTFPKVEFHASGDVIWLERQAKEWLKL
Sequence of H. pylori Asd (Q9ZK28 whole entry): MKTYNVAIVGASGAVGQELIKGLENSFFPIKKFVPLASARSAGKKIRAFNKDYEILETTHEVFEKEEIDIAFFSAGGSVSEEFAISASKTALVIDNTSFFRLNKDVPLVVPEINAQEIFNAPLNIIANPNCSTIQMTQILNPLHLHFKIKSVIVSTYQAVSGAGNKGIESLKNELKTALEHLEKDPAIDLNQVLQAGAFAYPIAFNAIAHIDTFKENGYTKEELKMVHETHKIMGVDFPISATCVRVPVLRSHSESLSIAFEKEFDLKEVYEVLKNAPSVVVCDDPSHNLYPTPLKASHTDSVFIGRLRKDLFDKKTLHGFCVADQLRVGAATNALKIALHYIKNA

Regarding `N[C@@H](CC=O)C(=O)O` [ASA, L-aspartate-β-semialdehyde], the half-life in data set [1] (assay buffer, pH 7.7 (under assay conditions), read-out: t½ (converted)) is 300 min. Also, the “time ASA found to be stable” value in data set [1] (pH 1.4) was “up to 48 hours”.

As for `N[C@@H](COS(=O)(=O)O)C(=O)O` [L-Serine-O-Sulfate], the “inactivation of glutamate racemase by the inhibitor (residual initial velocity)” value in data set [2] is “readily inactivated”.

For phosphate [reference compound], the results for the Km in data set [3] and in data set [4] were 2.1 mM and 1.3 mM, respectively.

Take “lacZ: non-Helicobacter pylori control protein (β-galactosidase from E. coli) constructed with a hexa-HIS tag [reference compound]”: in data set [5], the “degree of colonization of the antrum” value was “higher Helicobacter colonization” and the “reduction and/or eradication of the H. pylori infection (therapeutic immunization effect)” value was “no eradication effect”. In addition, the “degree of colonization of the antrum” value in data set [5] (listed as LacZ) is recorded as “highest colonization in the antrum”.
